Experimental data published in patent US7868004B2, “Menthane carboxamide derivatives having cooling properties” (Givaudan S.A., priority 2005, dated 2011).

Key:
Type in all cases: in vivo
panelists = experiment: experiment on cooling intensity: panelists taste solutions and compare with menthol at 2 ppm; conditions: tasted by a small group of panelists; reference menthol at 2 ppm
mouth [1] = experiment: Application in toothpaste: cooling perception in the mouth; conditions: toothgel with 1.500 g of 2% solution in PG per 100 g, teeth brushed, mouth rinsed with water
Text: [table] The chemicals are mixed in the toothgel, a piece of toothgel is put on a toothbrush and a panelist's teeth are brushed. The mouth is rinsed with water and the water is spit out. […] The cooling perception lasts for several hours.

mouth [2] = experiment: Application in mouthwash: cooling perception in the mouth; conditions: mouthwash with 10 mL of 1% solution in alcohol per liter, 30 mL swished, gargled and spit out
Method: [table] All the ingredients are mixed. 30 mL of obtained solution is put in the mouth, swished around, gargled and spit out. […] The cooling perception lasts for several hours

SMILES: CC1CCC(C(C)C)C(O)C1 (stereo not shown) [Example 1-Menthol, 1-Menthol, reference compound]
- Concentration of solution having a cooling intensity similar or slightly higher than that of a solution of menthol at 2 ppm (panelists): 2.0 ppm

SMILES: CC1CCC(C(C)C)C(C(=O)Nc2ccc(-c3cnco3)cc2)C1 (stereo not shown) [Example 5, N-4-(oxazol-5-yl)-phenyl-3-p-menthanecarboxamide]
- Concentration of solution having a cooling intensity similar or slightly higher than that of a solution of menthol at 2 ppm (panelists): 0.5 ppm

SMILES: CC1CCC(C(C)C)C(C(=O)Nc2ccc3c(c2)OCO3)C1 (stereo not shown) [N-benzo[1,3]dioxol-5-yl-3-p-menthanecarboxamide]
- Concentration of solution having a cooling intensity similar or slightly higher than that of a solution of menthol at 2 ppm (panelists): 0.02 ppm

SMILES: CC1CCC(C(C)C)C(C(=O)Nc2ccc3ncsc3c2)C1 (stereo not shown) [Example 3, N-benzothiazol-6-yl menthanecarboxamide]
- Concentration of solution having a cooling intensity similar or slightly higher than that of a solution of menthol at 2 ppm (panelists): 0.3 ppm

SMILES: CC1CCC(C(C)C)C(C(=O)Nc2ccc(-n3cccn3)cc2)C1 (stereo not shown) [N-4-(pyrazol-1-yl)-phenyl-3-p-menthanecarboxamide]
- Concentration of solution having a cooling intensity similar or slightly higher than that of a solution of menthol at 2 ppm (panelists): 0.02 ppm

SMILES: CC1CCC(C(C)C)C(C(=O)Nc2cccc(-c3cnco3)c2)C1 (stereo not shown) [Example 6, N-3-(oxazol-5-yl)-phenyl-3-p-menthanecarboxamide]
- Concentration of solution having a cooling intensity similar or slightly higher than that of a solution of menthol at 2 ppm (panelists): 0.1 ppm
- duration of cooling perception (mouth [1]): several hours
- cooling sensation (mouth [1]; all areas of the mouth): intense cooling sensation

SMILES: CC1CCC(C(C)C)C(C(=O)Nc2ccc(-n3cncn3)cc2)C1 (stereo not shown) [Example 4, N-4-([1,2,4]triazol-1-yl)-phenyl-3-p-menthanecarboxamide]
- Concentration of solution having a cooling intensity similar or slightly higher than that of a solution of menthol at 2 ppm (panelists): 0.02 ppm

SMILES: CC1CCC(C(C)C)C(C(=O)Nc2cccc3ocnc23)C1 (stereo not shown) [Example 1, N-benzooxazol-4-yl 3-p-menthanecarboxamide]
- duration of cooling perception (mouth [2]): several hours
- cooling sensation (mouth [2]; every area of the mouth and lips): intense cooling
- Concentration of solution having a cooling intensity similar or slightly higher than that of a solution of menthol at 2 ppm (panelists): 0.02 ppm

SMILES: CC1CCC(C(C)C)C(C(=O)Nc2ccc(N3CCOCC3)cc2)C1 (stereo not shown) [N-4-(morpholin-4-yl)-phenyl 3-p-menthanecarboxamide]
- Concentration of solution having a cooling intensity similar or slightly higher than that of a solution of menthol at 2 ppm (panelists): 0.2 ppm
